Activity calls are given as the source filed them. No cut-off for these calls is given here.
How the values were obtained:
[1] = biological target: Dual specificity tyrosine-phosphorylation-regulated kinase 1B (Homo sapiens, UniProt Q9Y463); test: Binding affinity to DYRK1B (unknown origin) assessed as dissociation constant by competitive binding assay
[2] = Metabolic stability in human liver microsomes assessed as intrinsic clearance at 1 uM preincubated for 10 mins followed by NADPH addition and measured for 60 mins by LC-MS/MS analysis; assay type: ADME, Microsome; details: read-out: CLH
[3] = biological target: Cyclin-dependent kinase 19 (Homo sapiens, UniProt Q9BWU1); test: Inhibition of CDK19 (unknown origin)
CDK8/Cyclin C = CDK8/Cyclin C (Homo sapiens, UniProt P49336); test: Inhibition of His tagged human recombinant CDK8/Cyclin C expressed in baculovirus expression system incubated for 15 mins by FRET-based LanthaScreen binding competition assay
[4] = biological target: Phosphatidylinositol 3-kinase catalytic subunit type 3 (Homo sapiens, UniProt Q8NEB9); test: Binding affinity to VPS34 (unknown origin) assessed as dissociation constant by competitive binding assay
[5] = biological target: T1, Serine/threonine-protein kinase LATS2 (Homo sapiens, UniProt Q9NRM7); test: Binding affinity to LATS2 (unknown origin) assessed as dissociation constant by competitive binding assay
T1 sequence (Q9NRM7 whole entry): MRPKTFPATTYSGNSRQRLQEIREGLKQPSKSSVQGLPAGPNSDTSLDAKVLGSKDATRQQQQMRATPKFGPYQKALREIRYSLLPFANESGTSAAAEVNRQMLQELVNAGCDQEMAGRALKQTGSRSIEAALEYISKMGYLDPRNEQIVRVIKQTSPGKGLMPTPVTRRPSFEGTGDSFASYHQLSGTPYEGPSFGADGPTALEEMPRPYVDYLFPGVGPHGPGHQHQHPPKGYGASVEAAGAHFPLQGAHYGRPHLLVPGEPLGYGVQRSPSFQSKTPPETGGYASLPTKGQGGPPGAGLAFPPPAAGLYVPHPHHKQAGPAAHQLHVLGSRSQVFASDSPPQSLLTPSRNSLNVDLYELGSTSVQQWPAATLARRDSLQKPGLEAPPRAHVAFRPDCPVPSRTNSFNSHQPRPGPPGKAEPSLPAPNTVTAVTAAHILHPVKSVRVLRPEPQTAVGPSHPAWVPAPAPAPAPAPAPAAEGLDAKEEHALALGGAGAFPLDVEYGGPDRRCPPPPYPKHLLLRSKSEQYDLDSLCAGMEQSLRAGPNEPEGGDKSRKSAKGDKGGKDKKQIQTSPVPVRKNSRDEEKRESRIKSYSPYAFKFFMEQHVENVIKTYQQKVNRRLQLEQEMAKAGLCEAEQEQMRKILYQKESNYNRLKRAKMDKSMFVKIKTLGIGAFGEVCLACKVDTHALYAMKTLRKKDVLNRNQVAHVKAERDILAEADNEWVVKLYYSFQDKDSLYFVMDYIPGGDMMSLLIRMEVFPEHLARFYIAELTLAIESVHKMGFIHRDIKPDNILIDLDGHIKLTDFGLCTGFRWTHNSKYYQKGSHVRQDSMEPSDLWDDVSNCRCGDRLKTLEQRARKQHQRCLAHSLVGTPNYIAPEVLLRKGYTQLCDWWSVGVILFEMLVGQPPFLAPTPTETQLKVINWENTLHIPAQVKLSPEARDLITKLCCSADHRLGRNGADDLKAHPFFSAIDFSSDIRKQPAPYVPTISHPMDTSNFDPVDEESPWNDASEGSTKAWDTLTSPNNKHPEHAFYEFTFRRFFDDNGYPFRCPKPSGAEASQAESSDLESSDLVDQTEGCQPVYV

Cytochrome P450 3A4 = Cytochrome P450 3A4 (Homo sapiens, UniProt P08684); test: Inhibition of CYP3A4 in human liver microsomes using midazolam as substrate assessed as reduction in substrate hydroxylation incubated for 10 mins in presence of NADPH by LC-MS/MS analysis; assay type: ADME, Microsome
[6] = biological target: Glycogen synthase kinase-3 beta (Homo sapiens, UniProt P49841)
Description: Binding affinity to GSK3B (unknown origin) assessed as dissociation constant by competitive binding assay

[7] = Half life in CD-1 mouse at 5 mg/kg, po or 1 mg/kg, iv administered as single dose and measured for 24 hrs by LC-MS/MS analysis; assay type: ADME, organism-based; details: in vivo
[8] = biological target: T2, Signal transducer and activator of transcription 1-alpha/beta (Homo sapiens) (UniProt P42224); test: Inhibition of STAT1 phosphorylation at S727 residue in human MV4-11 cells incubated for 24 hrs by Western blot analysis; assay type: cell-based; details: dose 0.001-1 µM
T2 sequence (whole entry): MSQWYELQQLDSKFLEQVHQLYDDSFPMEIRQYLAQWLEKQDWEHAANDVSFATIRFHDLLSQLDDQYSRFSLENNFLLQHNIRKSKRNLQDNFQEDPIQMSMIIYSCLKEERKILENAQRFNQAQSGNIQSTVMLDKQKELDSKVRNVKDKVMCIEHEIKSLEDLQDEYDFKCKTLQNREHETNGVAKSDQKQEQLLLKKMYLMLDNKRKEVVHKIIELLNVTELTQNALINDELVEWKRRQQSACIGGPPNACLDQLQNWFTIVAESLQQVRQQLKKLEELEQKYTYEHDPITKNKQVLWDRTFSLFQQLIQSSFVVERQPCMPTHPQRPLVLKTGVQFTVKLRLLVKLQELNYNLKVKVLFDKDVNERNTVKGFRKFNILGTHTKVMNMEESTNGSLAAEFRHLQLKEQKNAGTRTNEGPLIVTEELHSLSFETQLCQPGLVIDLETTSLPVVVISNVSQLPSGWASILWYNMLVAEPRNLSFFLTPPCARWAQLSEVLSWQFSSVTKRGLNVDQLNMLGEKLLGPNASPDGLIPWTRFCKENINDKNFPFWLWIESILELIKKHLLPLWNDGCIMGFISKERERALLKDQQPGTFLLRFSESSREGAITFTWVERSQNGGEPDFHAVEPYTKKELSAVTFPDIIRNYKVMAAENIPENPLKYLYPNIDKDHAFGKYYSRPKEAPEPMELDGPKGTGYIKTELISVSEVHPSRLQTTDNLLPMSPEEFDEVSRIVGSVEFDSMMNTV

MV4-11 [9] = test: Induction of cell cycle arrest in human MV4-11 cells assessed as reduction in accumulation of cells at G2/M phase at 0.01 to 1 uM incubated for 48 hrs; assay type: functional, cell-based; details: dose 0.01-1 µM
Cytochrome P450 2C9 = Cytochrome P450 2C9 (Homo sapiens, UniProt P11712); test: Inhibition of CYP2C9 in human liver microsomes using diclofenac as substrate assessed as reduction in substrate hydroxylation incubated for 10 mins in presence of NADPH by LC-MS/MS analysis; assay type: ADME, Microsome
[10] = Half life in Beagle dog at 1 mg/kg, po or 0.5 mg/kg, iv administered as single dose and measured for 24 hrs by LC-MS/MS analysis; assay type: ADME, organism-based, Canis lupus familiaris; details: in vivo
[11] = biological target: Glycogen synthase kinase-3 alpha (Homo sapiens, UniProt P49840); test: Binding affinity to GSK3A (unknown origin) assessed as dissociation constant by competitive binding assay
MV4-11 [12] = test: Antiproliferative activity against human MV4-11 cells assessed as inhibition of cell growth incubated for 10 days and replacement with fresh media with compounds on day 5 by CTG assay; assay type: functional, cell-based

Cytochrome P450 2C9, sequence (P11712 whole entry): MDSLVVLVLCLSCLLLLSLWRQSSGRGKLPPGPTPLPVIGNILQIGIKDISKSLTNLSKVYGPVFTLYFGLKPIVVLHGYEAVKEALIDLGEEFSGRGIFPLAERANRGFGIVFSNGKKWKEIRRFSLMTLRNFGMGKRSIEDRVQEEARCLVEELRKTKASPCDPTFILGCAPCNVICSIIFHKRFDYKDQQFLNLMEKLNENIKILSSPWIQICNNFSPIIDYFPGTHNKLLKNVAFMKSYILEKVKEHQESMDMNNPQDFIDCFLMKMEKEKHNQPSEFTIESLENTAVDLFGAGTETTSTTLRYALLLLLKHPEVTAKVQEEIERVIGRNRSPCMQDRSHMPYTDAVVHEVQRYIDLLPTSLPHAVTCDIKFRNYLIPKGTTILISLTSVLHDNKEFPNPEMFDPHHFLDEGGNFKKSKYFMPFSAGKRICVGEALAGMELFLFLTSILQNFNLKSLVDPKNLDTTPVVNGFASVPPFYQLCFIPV
CDK8/Cyclin C, sequence (P49336 whole entry): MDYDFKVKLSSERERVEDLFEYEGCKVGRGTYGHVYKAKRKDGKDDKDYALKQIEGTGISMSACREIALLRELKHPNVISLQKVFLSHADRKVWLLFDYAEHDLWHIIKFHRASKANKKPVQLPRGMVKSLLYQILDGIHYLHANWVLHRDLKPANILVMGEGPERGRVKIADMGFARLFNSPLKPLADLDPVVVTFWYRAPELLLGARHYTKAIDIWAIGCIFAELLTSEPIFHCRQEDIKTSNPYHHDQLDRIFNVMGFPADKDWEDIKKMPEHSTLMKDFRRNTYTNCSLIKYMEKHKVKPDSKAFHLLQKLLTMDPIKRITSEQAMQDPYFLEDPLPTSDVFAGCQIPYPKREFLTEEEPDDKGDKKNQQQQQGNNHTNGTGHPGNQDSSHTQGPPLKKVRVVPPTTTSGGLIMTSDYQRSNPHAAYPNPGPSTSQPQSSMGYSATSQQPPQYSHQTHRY
CDK8/Cyclin C, sequence (P24863 whole entry, further chain): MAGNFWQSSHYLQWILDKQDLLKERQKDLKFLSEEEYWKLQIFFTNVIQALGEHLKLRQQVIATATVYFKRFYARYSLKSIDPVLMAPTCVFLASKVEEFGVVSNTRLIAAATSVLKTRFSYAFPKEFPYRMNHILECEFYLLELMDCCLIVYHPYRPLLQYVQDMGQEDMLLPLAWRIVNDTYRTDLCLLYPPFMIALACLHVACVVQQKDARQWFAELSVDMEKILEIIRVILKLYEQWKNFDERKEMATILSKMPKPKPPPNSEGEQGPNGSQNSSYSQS
Dual specificity tyrosine-phosphorylation-regulated kinase 1B, sequence (Q9Y463 whole entry): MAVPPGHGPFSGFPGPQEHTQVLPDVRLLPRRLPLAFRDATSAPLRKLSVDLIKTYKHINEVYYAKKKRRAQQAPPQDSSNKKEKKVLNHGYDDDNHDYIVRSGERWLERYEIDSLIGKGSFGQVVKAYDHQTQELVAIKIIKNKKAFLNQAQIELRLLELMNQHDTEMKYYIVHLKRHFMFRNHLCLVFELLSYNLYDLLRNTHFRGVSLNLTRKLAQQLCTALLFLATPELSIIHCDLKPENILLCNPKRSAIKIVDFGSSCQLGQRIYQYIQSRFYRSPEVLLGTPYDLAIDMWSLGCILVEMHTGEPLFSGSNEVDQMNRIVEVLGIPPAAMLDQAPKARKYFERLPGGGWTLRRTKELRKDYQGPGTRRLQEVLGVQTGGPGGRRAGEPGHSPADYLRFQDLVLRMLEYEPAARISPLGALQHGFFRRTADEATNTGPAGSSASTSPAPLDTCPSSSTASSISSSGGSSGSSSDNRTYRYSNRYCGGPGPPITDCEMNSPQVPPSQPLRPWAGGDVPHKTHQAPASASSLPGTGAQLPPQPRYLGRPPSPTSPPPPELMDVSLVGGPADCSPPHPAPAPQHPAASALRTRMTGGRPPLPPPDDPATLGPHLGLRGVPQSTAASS
Cyclin-dependent kinase 19, sequence (Q9BWU1 whole entry): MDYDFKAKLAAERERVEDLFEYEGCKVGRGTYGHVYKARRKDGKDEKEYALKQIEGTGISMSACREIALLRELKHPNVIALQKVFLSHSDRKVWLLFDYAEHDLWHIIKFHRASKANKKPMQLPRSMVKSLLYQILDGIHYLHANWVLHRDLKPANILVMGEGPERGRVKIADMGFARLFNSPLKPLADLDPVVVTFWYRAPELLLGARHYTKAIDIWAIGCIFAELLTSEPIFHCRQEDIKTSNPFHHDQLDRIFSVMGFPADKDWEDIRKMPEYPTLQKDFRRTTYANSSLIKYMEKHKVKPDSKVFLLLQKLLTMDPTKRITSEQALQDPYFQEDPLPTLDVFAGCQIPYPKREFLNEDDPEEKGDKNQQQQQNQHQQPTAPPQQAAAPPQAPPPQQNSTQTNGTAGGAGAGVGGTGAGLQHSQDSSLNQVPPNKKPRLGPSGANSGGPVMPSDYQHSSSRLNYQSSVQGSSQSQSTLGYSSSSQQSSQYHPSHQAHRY
Cytochrome P450 3A4, sequence (P08684 whole entry): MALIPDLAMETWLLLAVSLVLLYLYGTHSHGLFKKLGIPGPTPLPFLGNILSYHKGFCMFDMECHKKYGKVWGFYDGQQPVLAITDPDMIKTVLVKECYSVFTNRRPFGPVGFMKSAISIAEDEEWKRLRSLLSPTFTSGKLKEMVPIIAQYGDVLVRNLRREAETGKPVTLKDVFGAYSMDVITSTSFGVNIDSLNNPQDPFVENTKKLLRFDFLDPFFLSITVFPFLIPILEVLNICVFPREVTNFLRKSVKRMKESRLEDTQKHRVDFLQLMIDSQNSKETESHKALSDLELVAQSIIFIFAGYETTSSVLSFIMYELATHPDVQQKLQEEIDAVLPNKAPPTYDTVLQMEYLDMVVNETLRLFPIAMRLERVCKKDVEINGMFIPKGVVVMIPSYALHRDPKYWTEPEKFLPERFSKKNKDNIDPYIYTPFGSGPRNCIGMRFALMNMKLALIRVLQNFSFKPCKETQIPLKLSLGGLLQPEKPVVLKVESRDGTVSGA
Glycogen synthase kinase-3 alpha, sequence (P49840 whole entry): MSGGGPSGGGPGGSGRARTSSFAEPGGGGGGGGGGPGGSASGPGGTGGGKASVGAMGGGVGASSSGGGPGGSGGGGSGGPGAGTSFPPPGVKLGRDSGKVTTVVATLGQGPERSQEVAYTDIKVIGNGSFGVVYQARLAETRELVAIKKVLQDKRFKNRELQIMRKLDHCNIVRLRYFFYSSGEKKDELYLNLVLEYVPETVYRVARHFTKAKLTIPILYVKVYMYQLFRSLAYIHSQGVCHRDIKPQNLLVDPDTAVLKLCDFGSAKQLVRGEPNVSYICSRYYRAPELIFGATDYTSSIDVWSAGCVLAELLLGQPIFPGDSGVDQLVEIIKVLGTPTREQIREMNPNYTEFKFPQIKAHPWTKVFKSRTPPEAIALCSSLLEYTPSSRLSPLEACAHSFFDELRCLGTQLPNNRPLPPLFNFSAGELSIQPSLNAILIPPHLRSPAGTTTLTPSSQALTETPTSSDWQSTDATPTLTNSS
Phosphatidylinositol 3-kinase catalytic subunit type 3, sequence (Q8NEB9 whole entry): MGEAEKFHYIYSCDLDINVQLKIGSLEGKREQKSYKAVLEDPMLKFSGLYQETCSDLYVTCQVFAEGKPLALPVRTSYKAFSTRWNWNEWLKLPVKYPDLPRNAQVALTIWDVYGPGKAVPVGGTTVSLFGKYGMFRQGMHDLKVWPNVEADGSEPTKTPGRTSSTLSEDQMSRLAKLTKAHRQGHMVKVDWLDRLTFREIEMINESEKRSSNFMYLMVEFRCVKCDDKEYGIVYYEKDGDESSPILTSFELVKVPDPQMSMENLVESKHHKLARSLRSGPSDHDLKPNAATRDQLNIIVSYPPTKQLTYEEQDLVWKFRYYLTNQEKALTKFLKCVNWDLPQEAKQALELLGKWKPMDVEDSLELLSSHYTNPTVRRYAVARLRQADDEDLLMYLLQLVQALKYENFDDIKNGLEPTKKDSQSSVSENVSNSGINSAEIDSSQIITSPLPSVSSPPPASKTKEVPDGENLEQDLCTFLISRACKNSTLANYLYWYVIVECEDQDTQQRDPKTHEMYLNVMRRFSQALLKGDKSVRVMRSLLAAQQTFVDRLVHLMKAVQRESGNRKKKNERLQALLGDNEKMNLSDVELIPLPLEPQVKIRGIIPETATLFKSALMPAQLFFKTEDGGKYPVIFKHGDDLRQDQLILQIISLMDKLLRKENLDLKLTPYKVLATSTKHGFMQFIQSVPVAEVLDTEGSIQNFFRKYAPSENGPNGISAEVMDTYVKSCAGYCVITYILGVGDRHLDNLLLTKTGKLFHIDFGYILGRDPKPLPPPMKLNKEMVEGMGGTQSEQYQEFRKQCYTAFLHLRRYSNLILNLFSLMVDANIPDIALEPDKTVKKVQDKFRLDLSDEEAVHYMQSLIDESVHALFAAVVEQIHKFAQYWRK
Glycogen synthase kinase-3 beta, sequence (P49841 whole entry): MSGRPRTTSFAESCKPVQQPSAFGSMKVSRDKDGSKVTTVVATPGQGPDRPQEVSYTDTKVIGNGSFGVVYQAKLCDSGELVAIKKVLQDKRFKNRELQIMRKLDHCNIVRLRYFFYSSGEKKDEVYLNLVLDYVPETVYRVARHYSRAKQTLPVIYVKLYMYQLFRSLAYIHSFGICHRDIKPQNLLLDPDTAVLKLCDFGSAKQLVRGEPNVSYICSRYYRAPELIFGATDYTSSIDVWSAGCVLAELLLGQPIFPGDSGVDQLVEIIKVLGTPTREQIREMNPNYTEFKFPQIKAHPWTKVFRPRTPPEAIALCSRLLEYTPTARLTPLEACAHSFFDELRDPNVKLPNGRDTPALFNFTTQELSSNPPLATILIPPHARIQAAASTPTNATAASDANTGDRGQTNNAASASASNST

Kd [1]: 2700 nM
CLint scaled at 1 µM [2]: < 8.6 mL/min/kg
IC50 [3]: 2 nM
IC50 (CDK8/Cyclin C): 0.7 nM
Kd [4]: 4.2 µM
Kd [5]: 250 nM
IC50 (Cytochrome P450 3A4): > 50 µM
Kd [6]: 210 nM
half-life [7]: 228 min
inhibition [8]: Dose-Dependent Effect
IC50 (Cytochrome P450 2C9): 11.4 µM
half-life [10]: 276 min
Kd [11]: 240 nM
IC50 (MV4-11 [12]): 11.8 nM
Structure (SMILES): Cc1n[nH]c2ccc(-c3nnc(C)n3Cc3ccc(C(F)(F)F)cc3)cc12
Activity (MV4-11 [9]): Active
